Measured values taken from ChEMBL document CHEMBL6092191, “Advancing Cancer Immunotherapy through Engineering New PD-L1 Degraders: A Comprehensive Study from Small Molecules to PD-L1-Specific Peptide-Drug Conjugates” (J Med Chem, 2024).
pIC50: −log10 of the molar value. Activity calls are given as the source filed them. The calls are words filed in the database; no cut-off is given here.

How the values were obtained:
[1] = Drug uptake in human PC-9 cells at 10 uM by fluorescence microscopy; type: ADME, cell-based; conditions: pc-9, 10 µM
[2] = biological target: COP9 signalosome complex subunit 5 (Homo sapiens) (UniProt Q92905); test: Induction of PD-L1 degradation in human NCI-H460 cells at 10 uM incubated for 24 hrs by Western blot analysis; type: cell-based
COP9 signalosome complex subunit 5 (Homo sapiens), sequence (Q92905 2-334 limits assumed, one chain of several): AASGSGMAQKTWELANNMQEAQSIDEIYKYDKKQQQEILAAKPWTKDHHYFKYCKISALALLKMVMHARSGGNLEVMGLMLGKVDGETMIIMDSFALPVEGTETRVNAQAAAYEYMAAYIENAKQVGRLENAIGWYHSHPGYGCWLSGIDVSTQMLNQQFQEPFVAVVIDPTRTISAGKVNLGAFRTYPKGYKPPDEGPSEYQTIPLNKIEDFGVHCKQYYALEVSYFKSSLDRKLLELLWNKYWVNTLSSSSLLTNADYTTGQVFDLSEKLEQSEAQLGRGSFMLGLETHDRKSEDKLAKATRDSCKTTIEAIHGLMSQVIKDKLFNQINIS

[3] = biological target: COP9 signalosome complex subunit 5 (Homo sapiens) (UniProt Q92905); test: Induction of PD-L1 degradation in human NCI-H460 cells incubated for 24 hrs by Western blot analysis; type: cell-based; conditions: dose <= 100.0 µM
[4] = biological target: COP9 signalosome complex subunit 5 (Homo sapiens) (UniProt Q92905); test: Induction of PD-L1 degradation in human PC-9 cells incubated for 24 hrs by Western blot analysis; type: cell-based; conditions: dose <= 100.0 µM
[5] = biological target: COP9 signalosome complex subunit 5 (Homo sapiens) (UniProt Q92905); test: Induction of PD-L1 degradation in […] cells incubated for 24 hrs by Western blot analysis; type: cell-based; conditions: Lewis lung carcinoma cell line, dose <= 100.0 µM
[6] = biological target: COP9 signalosome complex subunit 5 (Homo sapiens) (UniProt Q92905); test: Induction of PD-L1 degradation in human NCI-H460 cells at 10 uM by Western blot analysis; type: cell-based; conditions: time <= 36.0 hrs
[7] = biological target: COP9 signalosome complex subunit 5 (Homo sapiens) (UniProt Q92905); test: Induction of PD-L1 degradation in human PC-9 cells at 10 uM by Western blot analysis; type: cell-based; conditions: time <= 36.0 hrs
[8] = biological target: COP9 signalosome complex subunit 5 (Homo sapiens) (UniProt Q92905); test: Induction of IFN-gamma-induced PD-L1 degradation in human HCC827 cells at 10 uM incubated for 24 hrs by Western blot analysis; type: cell-based
[9] = biological target: COP9 signalosome complex subunit 5 (Homo sapiens) (UniProt Q92905); test: Induction of IFN-gamma-induced PD-L1 degradation in human A549 cells at 10 uM incubated for 24 hrs by Western blot analysis; type: cell-based
[10] = biological target: COP9 signalosome complex subunit 5 (Homo sapiens) (UniProt Q92905); test: Induction of PD-L1 degradation in human PC-9 cells assessed as reduction in green signal at 10 uM incubated for 24 hrs by immunofluorescence staining based analysis; type: cell-based
[11] = test system: Lewis lung carcinoma cell line; test: Anticancer activity against Lewis lung carcinoma cells measured after 3 days by MTT assay; type: functional, cell-based; conditions: Mus musculus, 72 h
NCI-H460 [12] = test: Antiproliferative activity against human NCI-H460 cells at 10 uM measured after 4 days by MTT assay; type: functional, cell-based; conditions: time 4.0 day
PC-9 = test: Antiproliferative activity against human PC-9 cells at 10 uM measured after 4 days by MTT assay; type: functional, cell-based; conditions: time 4.0 day
[13] = test system: Lewis lung carcinoma cell line; test: Antiproliferative activity against Lewis lung carcinoma cells at 10 uM measured after 4 days by MTT assay; type: functional, cell-based; conditions: Mus musculus, time 4.0 day
NCI-H460 [14] = test: Inhibition of cell survival of human NCI-H460 cells co-cultivated with activated T cells at 10 uM incubated for 2 days by crystal violet staining based analysis; type: functional; conditions: time 2.0 day
[15] = test system: Lewis lung carcinoma cell line; test: Anticancer activity against Lewis lung carcinoma cells xenografted in C57BL/6 mouse model at 10 mg/kg, ip administered daily for 10 days relative to control; type: functional; conditions: 240 h, time 10 day, read-out: TGI
[16] = test system: Lewis lung carcinoma cell line; test: Antitumor T-cell immune response in Lewis lung carcinoma cells xenografted in C57BL/6 mouse model assessed as decrease in CD3+ CD4+ population in CD45+ T cells in tumor at 10 mg/kg, ip administered daily for 10 days by flow cytometry; type: functional, organism-based; conditions: time 10.0 day
[17] = test system: Lewis lung carcinoma cell line; test: Antitumor T-cell immune response in Lewis lung carcinoma cells xenografted in C57BL/6 mouse model assessed as increase in CD3+ CD8+ infiltration in CD45+ T cells in tumor at 10 mg/kg, ip administered daily for 10 days by flow cytometry; type: functional, organism-based; conditions: time 10.0 day
[18] = test system: Lewis lung carcinoma cell line; test: Antitumor T-cell immune response in Lewis lung carcinoma cells xenografted in C57BL/6 mouse model assessed as increase in IFN-gamma level in tumor at 10 mg/kg, ip administered daily for 10 days by ELISA; type: functional, organism-based; conditions: time 10.0 day
[19] = test system: Lewis lung carcinoma cell line; test: Antitumor T-cell immune response in Lewis lung carcinoma cells xenografted in C57BL/6 mouse model assessed as increase in TNF-alpha level in tumor at 10 mg/kg, ip administered daily for 10 days by ELISA; type: functional, organism-based; conditions: time 10.0 day
[20] = test system: Lewis lung carcinoma cell line; test: Antitumor T-cell immune response in Lewis lung carcinoma cells xenografted in C57BL/6 mouse model assessed as increase in GrB level in tumor at 10 mg/kg, ip administered daily for 10 days by ELISA; type: functional, organism-based; conditions: time 10.0 day
[21] = Toxicity in C57BL/6 mouse model xenografted with […] cells assessed as body weight loss at 10 mg/kg, ip administered daily for 10 days; type: organism-based; conditions: in vivo, 240 h, time 10 day
[22] = Toxicity in C57BL/6 mouse model xenografted with […] cells assessed as obvious damage in liver at 10 mg/kg, ip administered daily for 10 days by H and E staining based analysis; type: organism-based; conditions: in vivo, 240 h, time 10 day
[23] = Toxicity in C57BL/6 mouse model xenografted with […] cells assessed as obvious damage in lung at 10 mg/kg, ip administered daily for 10 days by H and E staining based analysis; type: organism-based; conditions: in vivo, 240 h, time 10 day
[24] = Toxicity in C57BL/6 mouse model xenografted with […] cells assessed as obvious damage in spleen at 10 mg/kg, ip administered daily for 10 days by H and E staining based analysis; type: organism-based; conditions: in vivo, 240 h, time 10 day
[25] = Toxicity in C57BL/6 mouse model xenografted with […] cells assessed as change in ALT level at 10 mg/kg, ip administered daily for 10 days; type: organism-based, Blood; conditions: in vivo, 240 h, time 10 day
[26] = Toxicity in C57BL/6 mouse model xenografted with […] cells assessed as change in BUN level at 10 mg/kg, ip administered daily for 10 days; type: organism-based, Blood; conditions: in vivo, 240 h, time 10 day
A549 = test: Effect on IFN-gamma-induced PD-L1 mRNA expression in human A549 cells at 10 uM by qRT-PCR analysis; type: functional, cell-based
HCC827 = test: Effect on IFN-gamma-induced PD-L1 mRNA expression in human HCC827 cells at 10 uM by qRT-PCR analysis; type: functional, cell-based
[27] = biological target: COP9 signalosome complex subunit 5 (Homo sapiens) (UniProt Q92905); test: Induction of PD-L1 degradation in human NCI-H460 cells at 10 uM pretreated with compound followed by CHX incubation upto 8 hrs by Western blot analysis; type: cell-based
[28] = biological target: COP9 signalosome complex subunit 5 (Homo sapiens) (UniProt Q92905); test: Induction of PD-L1 degradation in human NCI-H460 cells upto 40 uM in presence of chloroquine by Western blot analysis; type: cell-based
[29] = biological target: COP9 signalosome complex subunit 5 (Homo sapiens) (UniProt Q92905); test: Induction of PD-L1 degradation in human NCI-H460 cells upto 20 uM in presence of MG132 by Western blot analysis; type: cell-based
[30] = biological target: COP9 signalosome complex subunit 5 (Homo sapiens) (UniProt Q92905); test: Induction of PD-L1 degradation in human NCI-H460 cells assessed as PD-L1 ubiquitination by Western blot analysis; type: cell-based
HEK-293T = test: Antiproliferative activity against HEK293T cells at 10 uM incubated for 4 days; type: toxicity, cell-based; conditions: human, 96 h, time 4 day
3T3-L1 = test: Antiproliferative activity against mouse 3T3-L1 cells at 10 uM incubated for 4 days; type: toxicity, cell-based; conditions: 3t3-l1, 96 h, time 4 day
[31] = Antiproliferative activity against human HTori-3 cells at 10 uM incubated for 4 days; type: toxicity, cell-based; conditions: htori-3, 96 h, time 4 day
[32] = test system: Lewis lung carcinoma cell line; test: Antitumor activity against Lewis lung carcinoma cells xenografted in C57BL/6 mouse model at 5 mg/kg, ip administered daily for 8 days relative to control; type: functional; conditions: 192 h, time 8 day, read-out: TGI
[33] = test system: Lewis lung carcinoma cell line; test: Antitumor T-cell immune response in Lewis lung carcinoma cells xenografted in C57BL/6 mouse model assessed as increase in ratio of CD8+ to CD4+ T cells in tumor at 5 mg/kg, ip administered daily for 8 days by flow cytometry; type: functional, organism-based; conditions: time 8.0 day

SMILES: COc1cc2c(cc1OC)-c1cc3ccc(OC)c(OCCN)c3c[n+]1CC2.[Cl-]
- Drug uptake [1]: Time-dependent-effect
- Activity [2]: Active; Most Effective Compound Among Pmt-O9 Derivatives
- Activity [3]: Dose-dependent-effect
- Activity [4]: Dose-dependent-effect
- Activity [5]: Dose-dependent-effect
- Activity [6]: Time-dependent-effect
- Activity [7]: Time-dependent-effect
- Activity [8]: Active
- Activity [9]: Active
- Activity [10]: Active
- pIC50 [11]: 3.91
- Activity (NCI-H460 [12]): inactive
- Activity (PC-9): inactive
- Activity [13]: inactive
- inhibition (NCI-H460 [14]): Active
- inhibition in vivo at 10 mg/kg [15]: 71%
- Activity [16]: Active
- Activity [17]: Active
- Activity [18]: Active
- Activity [19]: Active
- Activity [20]: Active
- Activity [21]: Non-toxic
- Activity [22]: Non-toxic
- Activity [23]: Non-toxic
- Activity [24]: Non-toxic
- Activity [25]: Non-toxic
- Activity [26]: Non-toxic
- Activity (A549): inactive
- Activity (HCC827): inactive
- Activity [27]: inactive
- Activity [28]: Active
- Activity [29]: inactive
- Activity [30]: Active
- Activity (HEK-293T): Non-toxic
- Activity (3T3-L1): Non-toxic
- Activity [31]: Non-toxic
- inhibition in vivo at 5 mg/kg [32]: 66%
- Activity [33]: Active
